Molecular target: USP9X (Homo sapiens, UniProt Q93008)
Test: Biochemical Assay for USP9X Inhibition (Ub-Rh110 fluorescence)
Conditions: Ub-Rh110 25 nM, 30 min preincubation
Procedure: Concentration and incubation times were optimized for the maximal signal-to-background while maintaining initial velocity conditions at a fixed substrate concentration (<<Km). […] To assay plates (pre-stamped with compound) was added 3 μL 2× Enzyme. The enzyme was preincubated for 30 minutes and then treated with 3 μL of 2× Substrate. […] The slope (best fit linear regression) of the five reads was used to normalize for inhibition. For all assays, data are reported as percent inhibition compared with control wells based on the following equation: […], wherein FLU is measured Fluorescence, AveLow is average Fluorescence of no enzyme control (n=64), and AveHigh is average Fluorescence of DMSO control (n=64). IC50 values are determined by curve fitting of the standard 4 parameter logistic fitting algorithm included in the Activity Base software package: IDBS XE Designer Model205. Data are fitted using the Levenburg Marquardt algorithm.

Sequence of USP9X (Q93008 whole entry): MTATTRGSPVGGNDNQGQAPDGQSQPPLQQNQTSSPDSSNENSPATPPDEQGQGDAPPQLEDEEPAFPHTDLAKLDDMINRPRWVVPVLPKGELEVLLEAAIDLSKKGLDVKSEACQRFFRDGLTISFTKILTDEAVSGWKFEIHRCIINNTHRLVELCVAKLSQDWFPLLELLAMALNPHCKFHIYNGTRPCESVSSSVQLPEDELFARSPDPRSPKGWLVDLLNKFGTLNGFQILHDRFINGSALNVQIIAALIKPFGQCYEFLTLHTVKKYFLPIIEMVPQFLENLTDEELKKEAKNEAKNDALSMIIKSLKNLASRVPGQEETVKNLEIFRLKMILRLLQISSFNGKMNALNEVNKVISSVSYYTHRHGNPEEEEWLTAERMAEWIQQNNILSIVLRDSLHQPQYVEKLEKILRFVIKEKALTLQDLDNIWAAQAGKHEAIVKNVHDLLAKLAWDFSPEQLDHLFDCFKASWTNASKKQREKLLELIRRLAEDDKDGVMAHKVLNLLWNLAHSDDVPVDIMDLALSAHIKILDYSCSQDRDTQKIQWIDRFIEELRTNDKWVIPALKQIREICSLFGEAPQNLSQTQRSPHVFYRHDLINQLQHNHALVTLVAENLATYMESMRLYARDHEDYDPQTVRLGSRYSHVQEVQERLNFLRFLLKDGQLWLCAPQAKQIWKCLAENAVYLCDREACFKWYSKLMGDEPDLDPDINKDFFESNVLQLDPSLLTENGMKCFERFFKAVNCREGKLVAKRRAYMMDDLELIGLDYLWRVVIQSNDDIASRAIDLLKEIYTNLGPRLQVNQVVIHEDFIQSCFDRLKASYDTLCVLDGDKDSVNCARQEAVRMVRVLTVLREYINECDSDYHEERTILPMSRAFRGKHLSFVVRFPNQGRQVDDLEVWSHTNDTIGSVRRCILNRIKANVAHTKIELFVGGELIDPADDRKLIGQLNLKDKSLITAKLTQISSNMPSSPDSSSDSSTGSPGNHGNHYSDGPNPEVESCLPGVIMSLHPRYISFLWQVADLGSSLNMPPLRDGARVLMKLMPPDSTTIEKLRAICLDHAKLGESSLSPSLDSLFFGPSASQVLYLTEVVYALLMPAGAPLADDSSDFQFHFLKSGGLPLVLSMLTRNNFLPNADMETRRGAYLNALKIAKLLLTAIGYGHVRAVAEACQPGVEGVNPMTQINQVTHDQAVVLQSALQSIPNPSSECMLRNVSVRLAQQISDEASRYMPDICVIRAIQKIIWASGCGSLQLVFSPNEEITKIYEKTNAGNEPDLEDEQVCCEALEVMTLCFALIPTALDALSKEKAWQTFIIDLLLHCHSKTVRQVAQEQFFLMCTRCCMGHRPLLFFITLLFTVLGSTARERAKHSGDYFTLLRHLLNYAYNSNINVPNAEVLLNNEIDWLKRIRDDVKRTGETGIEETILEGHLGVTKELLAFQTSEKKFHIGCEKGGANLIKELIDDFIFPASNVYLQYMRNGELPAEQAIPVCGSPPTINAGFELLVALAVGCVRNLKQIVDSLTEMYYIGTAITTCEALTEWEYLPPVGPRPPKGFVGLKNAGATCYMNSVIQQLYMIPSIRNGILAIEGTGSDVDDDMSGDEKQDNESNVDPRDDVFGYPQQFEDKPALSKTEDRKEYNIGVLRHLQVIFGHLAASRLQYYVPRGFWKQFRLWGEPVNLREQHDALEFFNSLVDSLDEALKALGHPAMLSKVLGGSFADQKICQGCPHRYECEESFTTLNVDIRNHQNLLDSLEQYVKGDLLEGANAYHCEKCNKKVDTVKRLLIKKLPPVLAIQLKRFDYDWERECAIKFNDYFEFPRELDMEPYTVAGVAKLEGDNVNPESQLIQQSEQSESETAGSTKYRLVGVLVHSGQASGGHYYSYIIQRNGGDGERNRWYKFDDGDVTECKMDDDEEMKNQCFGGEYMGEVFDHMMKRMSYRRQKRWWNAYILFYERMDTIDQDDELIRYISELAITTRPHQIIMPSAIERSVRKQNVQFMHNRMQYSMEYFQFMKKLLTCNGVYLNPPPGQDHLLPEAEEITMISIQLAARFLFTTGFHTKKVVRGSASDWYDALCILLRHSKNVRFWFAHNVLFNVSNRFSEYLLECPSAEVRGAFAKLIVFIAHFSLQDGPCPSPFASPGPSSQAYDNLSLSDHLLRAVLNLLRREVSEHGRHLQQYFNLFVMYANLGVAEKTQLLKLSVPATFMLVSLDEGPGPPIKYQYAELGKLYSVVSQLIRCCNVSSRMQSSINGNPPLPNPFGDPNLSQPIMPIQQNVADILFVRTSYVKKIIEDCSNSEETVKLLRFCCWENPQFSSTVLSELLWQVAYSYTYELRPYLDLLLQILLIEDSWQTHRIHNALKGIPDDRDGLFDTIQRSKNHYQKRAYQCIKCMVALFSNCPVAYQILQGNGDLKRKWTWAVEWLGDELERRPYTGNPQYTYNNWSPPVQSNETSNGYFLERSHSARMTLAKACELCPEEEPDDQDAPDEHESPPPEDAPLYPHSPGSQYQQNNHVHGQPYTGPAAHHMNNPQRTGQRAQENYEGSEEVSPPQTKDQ

CN1CCC(Oc2cccc(C(O)c3cc4c(cn3)CN(S(=O)(=O)c3ccc(-c5ncco5)cc3)C4)c2)CC1 (single isomer, unassigned) [Example 78]
IC50 (USP9X 0.025 nM): 0.001 to 0.1 µM

CN1CCC(Oc2cccc(C(O)c3cc4c(cn3)CN(S(=O)(=O)c3ccc(-c5ncco5)cc3)C4)c2)CC1 (single isomer, unassigned) [Example 79]
IC50 (USP9X […]): 0.001 to 0.1 µM

O=S(=O)(c1ccc(-n2ccnc2)cc1)N1Cc2cnc(C(O)c3ccccc3)cc2C1 (centres unmarked) [Example 19]
IC50 (USP9X 0.025 nM): > 25 µM

O=S(=O)(C1CCN(c2nccs2)CC1)N1Cc2cnc(C(O)c3ccccc3)cc2C1 (centres unmarked) [Example 24]
IC50 (USP9X 0.025 nM): > 25 µM

O=S(=O)(C1CCN(c2ncco2)CC1)N1Cc2cnc(C(O)c3ccccc3)cc2C1 (centres unmarked) [Example 32, (2-{[1-(1,3-oxazol-2-yl)piperidin-4-yl]sulfonyl}-1H,2H,3H-pyrrolo[3,4-c]pyridine-6-yl)(phenyl)methanol]
IC50 (USP9X 0.025 nM): > 25 µM
